Measurements published in patent US20080214678A1, “Biopesticide Comprising a Composition Rich in Diallyl Polysulphides” (priority 2003, published 2008).
≈ marks a conversion by molar mass, not a printed value. Like-named read-outs stand apart in the source and are kept apart here.

Legend:
[1] = test system: clothes moth Tineola bisselliella; assay: whole plant or invertebrate; format: in vivo; conditions: for LC50: Tineola bisselliella; for insecticidal activity: closed space, insects tested
Procedure: (§1) The pesticidal activity of the extracts is measured in a closed space on adult insects. Each value represents the mean of three experiments, each involving 30 insects representative of three different insect orders: • lepidoptera (the clothes moth Tineola bisselliella), • isoptera (the Saintonge termite Reticulitermes santonensis), and • coleoptera (the bean weevil Callosobruchus maculatus)

[2] = test system: bean weevil Callosobruchus maculatus; assay: Pesticidal activity in a closed space on adult weevil (LC50); format: in vivo
Procedure: as §1

[3] = ambient temperature storage; cited from earlier work
[4] = adult insects, closed space, 24 h of treatment, NQ = non-quantifiable due to the absence of activity, read-out: Weevil LC50

Row | SMILES | LC50 ([1]; 24 h, read-out: Mite LC50) | LC50 ([1]; 24 h, read-out: Mite LC50 observed) | LC50 ([1]; read-out: Mite LC50 calculated) | insecticidal activity [1] | LC50 ([2]; adult insects, closed space, 24 h, NQ = no activity, read-out: Weevil LC50 observed) | LC50 [2, 4] | LC50 ([2]; theoretical, from total DASn content compared with DAS2 activity, read-out: Weevil LC50 calculated) | stability at ambient temperature [3]
1 | C=CCSSCC=C [DAS2, diallyl disulfide] | 0.02 µg/mL (≈ 0.137 µM) | 0.02 µg/mL (≈ 0.137 µM) | 0.02 µg/mL (≈ 0.137 µM) | show an insecticidal activity | 0.5 µg/mL (≈ 3.42 µM) | 0.5 µg/mL (≈ 3.42 µM) | 0.5 µg/mL (≈ 3.42 µM) | –
2 | C=CCS[S+]([O-])CC=C (stereo not shown) [TiA2, allicin] | – | – | – | show an insecticidal activity | – | 0.16 µg/mL (≈ 0.986 µM) | – | low stability
